This is an account of results in publication PMC12775434, “Ultra-large virtual screening unveils potent agonists of the neuromodulatory orphan receptor GPR139” (Nature Communications, 2025).

Values joined by “and” are separate entries in the source; they are usually repeats but may differ in a detail not shown here. Equal values may be shown once. Read-outs that look alike come from different tables or passages of the source.

This test has as its target T1, GPR139 (arrestin-3 recruitment) (Homo sapiens, UniProt Q6DWJ6).
T1 construct: expressed in transfected cells; host or cells: HEK293A (transient, Lipofectamine 2000)
T1 sequence (Q6DWJ6 1-353): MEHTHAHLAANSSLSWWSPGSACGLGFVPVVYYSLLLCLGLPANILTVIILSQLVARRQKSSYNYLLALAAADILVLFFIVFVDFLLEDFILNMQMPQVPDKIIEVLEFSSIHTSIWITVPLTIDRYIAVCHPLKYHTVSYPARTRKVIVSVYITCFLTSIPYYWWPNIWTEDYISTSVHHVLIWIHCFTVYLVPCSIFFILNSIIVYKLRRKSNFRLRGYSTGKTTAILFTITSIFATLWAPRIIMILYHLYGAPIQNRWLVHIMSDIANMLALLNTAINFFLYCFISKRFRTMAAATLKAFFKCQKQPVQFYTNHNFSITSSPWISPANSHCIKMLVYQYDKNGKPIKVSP
Description: Arrestin-3 recruitment assay (enhanced bystander BRET), HEK293A. It counts as cell-based. The note with it: for Emax: HEK293-A, normalized to JNJ-63533054 (JNJ(S)); for EC50: read-out: pEC50 Arrestin-3 (converted); for Arrestin-3 recruitment: individual replicates. Here is the method:
Primary screening and pharmacological characterization of compounds were performed using a CHO-K1 cell line that stably expresses human GPR139 (GPR139-CHOk1). The GPR139-CHOk1 cell line was kindly provided by H. Lundbeck A/S, Denmark[24]. GPR139-CHOk1 cells were grown in Ham’s F-12 Kaighn’s Modification Medium (ThermoFisher #21127030) supplemented with 10% dialyzed fetal bovine serum (US origin, ThermoFisher #26400044), 100 units/mL Penicillin-Streptomycin (ThermoFisher #15140122), and 1 mg/mL Geneticin (ThermoFisher #11811031). […] M1R-CHOk1 cells were purchased from The Missouri S&T cDNA Resource Center (#CEM100TN00). M1R-CHOk1 cells were grown in Ham’s F12 Medium (ThermoFisher #21765029) supplemented with 10% fetal bovine serum (Brazilian origin, ThermoFisher #10270106), 100 units/mL Penicillin-Streptomycin, and 0.25 mg/mL Geneticin. HEK293A cells transiently transfected with GPR139 were used for additional pharmacological assessment of signaling pathways activated by GPR139. HEK239A cells were generously provided by Dr. Asuka Inoue, Tohoku University, Japan. HEK293A cells were grown in Dulbecco’s Modified Eagle Medium (ThermoFisher #31966047) supplemented with 10% dialyzed fetal bovine serum and 100 units/mL Penicillin-Streptomycin. Cell lines were maintained at 37 °C in humidified incubator equilibrated with 5% CO2.
The enhanced bystander BRET arrestin recruitment assay developed by the work of Donthamsetti et al.[58] was used to measure the arrestin-3 recruitment by GPR139. HEK293A cells were reverse transfected 20–24 h prior to the assay. 50,000 cells were plated in each well of white opaque tissue culture treated 96-well plates (PerkinElmer #6005680) previously coated with poly-D-lysine. The transfection solutions were prepared as described, and 10 µL transfection solution was mixed with 100 µL cells in each well. The cells in each well were transfected with 6 ng GPR139, 0.6 ng RLuc8-Arrestin3-Sp1, 6 ng GRK5, and 62.5 ng MEMlinker[doubly palmitoylated fragment of GAP43]-Citrine-SH3 using 200 nL Lipofectamine 2000 Transfection Reagent. Each transfection was normalized to 80 ng total DNA with pcDNA3.1. On the day of the experiment, the cells were washed with HEPES buffer and incubated for 2 h in HEPES buffer prior to measurements. Test compounds were diluted in HEPES buffer from DMSO stocks (final DMSO concentration of maximally 0.3%). Renilla luciferase 8 (RLuc8) substrate Coelenterazine h (Cayman Chemical #16894) was diluted in HEPES buffer to 5 µM (final). Coelenterazine h was added, and the cells were incubated for 5 min followed by stimulation with test compounds. Simultaneous dual emission was measured at 535 nm and 475 nm on LUMIstar Omega Microplate Reader (BMG Labtech) at 37 °C over 30 min. The BRET ratio of 535 nm/475 nm (Citrine/RLuc8), reflecting the translocation of arrestin from the cytosol to the membrane, was used to determine the arrestin recruitment. The BRET response-time course area under the curve of the basal response obtained with buffer condition was subtracted from the absolute response at a given test compound concentration, and the responses were normalized to the one obtained with 10 µM JNJ-63533054.
Pharmacological data and statistical analyses were performed in GraphPad Prism v9–10 (Graphpad Software Inc., San Diego, CA), which are also specifically described in the figure and table legends. The functional assay responses were normalized to buffer (0%) and Lundbeck Cmp 1a or JNJ-63533054 (100%), for Ca^2+ and IP1 experiments in the GPR139-CHOk1 stable cell line or Ca^2+, G protein activation, and arrestin-3 recruitment experiments in the HEK293A cells transiently transfected with GPR139, respectively. Data are from at least three independent experiments, unless stated otherwise. Concentration-response curves were fitted applying non-linear regression using the log (agonist) versus response model with variable slope. ANOVA was applied for comparing results and determining statistical significance. […]

As to `Cc1cscc1-c1nc(CC(=O)N[C@@H](C)c2ccccc2)no1` [1.1(S)], the maximal effect (Emax) (as a rule, the maximal effect, on the per cent scale that the assay sets) was 96 ± 1%. Besides, the EC50 (Supplementary Table 6) was 0.0794 µM. Moreover, the Arrestin-3 recruitment (log [compound] M -4.5) is 96 % of JNJ-63533054 and 88 % of JNJ-63533054 and 101 % of JNJ-63533054. Moreover, the Arrestin-3 recruitment (log [compound] M -5.0) was 90 % of JNJ-63533054 and 91 % of JNJ-63533054 (2×). Under “log [compound] M -5.5”, the Arrestin-3 recruitment is 89 % of JNJ-63533054 and 102 % of JNJ-63533054 and 91 % of JNJ-63533054. In addition, for the setting “log [compound] M -6.0”, the Arrestin-3 recruitment was 109 % of JNJ-63533054 and 107 % of JNJ-63533054 and 84 % of JNJ-63533054. The Arrestin-3 recruitment (log [compound] M -6.5) is 82 % of JNJ-63533054 and 87 % of JNJ-63533054 and 66 % of JNJ-63533054. The Arrestin-3 recruitment (log [compound] M -7.0) was 57 % of JNJ-63533054 and 71 % of JNJ-63533054 and 50 % of JNJ-63533054. The Arrestin-3 recruitment (log [compound] M -7.5) is 23 % of JNJ-63533054 and 32 % of JNJ-63533054 and 4.63 % of JNJ-63533054.

Consider `CC(NC(=O)CNC(=O)c1cccc(Cl)c1)c1ccccc1` (centres unmarked) [JNJ-63533054, reference compound], for which the maximal effect (Emax) turned out to be 100 ± 4%. Also, the EC50 (Supplementary Table 6) is 0.158 µM. Also, for the setting “log [compound] M -4.5, listed as JNJ (S)”, the Arrestin-3 recruitment was 94 % of JNJ-63533054 and 101 % of JNJ-63533054 and 107 % of JNJ-63533054. Besides, the Arrestin-3 recruitment (log [compound] M -5.0, listed as JNJ (S)) is 95 % of JNJ-63533054 and 99 % of JNJ-63533054 and 103 % of JNJ-63533054. Also, under “log [compound] M -5.5, listed as JNJ (S)”, the Arrestin-3 recruitment is 90 % of JNJ-63533054 and 100 % of JNJ-63533054 and 94 % of JNJ-63533054. The Arrestin-3 recruitment (log [compound] M -6.0, listed as JNJ (S)) was 85 % of JNJ-63533054 and 100 % of JNJ-63533054 and 78 % of JNJ-63533054. In addition, the Arrestin-3 recruitment (log [compound] M -6.5, listed as JNJ (S)) was 68 % of JNJ-63533054 and 81 % of JNJ-63533054 and 55 % of JNJ-63533054. Further, the Arrestin-3 recruitment (log [compound] M -7.0, listed as JNJ (S)) was 45 % of JNJ-63533054 (2×) and 36 % of JNJ-63533054. Further, for the setting “log [compound] M -7.5, listed as JNJ (S)”, the Arrestin-3 recruitment is 8 % of JNJ-63533054 and 15 % of JNJ-63533054 and 0.123 % of JNJ-63533054.

Take `Cc1cscc1-c1nc(CC(=O)N[C@H](C)c2ccccc2)no1` [1.1(R)]: the Emax was 81 ± 5%. The EC50 (Supplementary Table 6) was 2.51 µM. In addition, for the setting “log [compound] M -4.5”, the Arrestin-3 recruitment was 72 % of JNJ-63533054 and 73 % of JNJ-63533054 and 89 % of JNJ-63533054. Also, the Arrestin-3 recruitment (log [compound] M -5.0) was 69 % of JNJ-63533054 and 65 % of JNJ-63533054 (2×). Under “log [compound] M -5.5”, the Arrestin-3 recruitment is 54 % of JNJ-63533054 and 40 % of JNJ-63533054 and 41 % of JNJ-63533054. Also, the Arrestin-3 recruitment (log [compound] M -6.0) is 36 % of JNJ-63533054 and 10 % of JNJ-63533054 and 17 % of JNJ-63533054. The Arrestin-3 recruitment (log [compound] M -6.5) is 17 % of JNJ-63533054 and 3.28 % of JNJ-63533054 and 1.44 % of JNJ-63533054. Besides, the Arrestin-3 recruitment (log [compound] M -7.0) was 12 % of JNJ-63533054 and 3.28 % of JNJ-63533054 and 2 % of JNJ-63533054. The Arrestin-3 recruitment (log [compound] M -7.5) was 1.13 % of JNJ-63533054 and 0.124 % of JNJ-63533054 and 0.145 % of JNJ-63533054.

For `C[C@@H](NC(=O)CNC(=O)c1cccc(Cl)c1)c1ccccc1` [JNJ(R), reference compound], the EC50 was 15.8 µM. Moreover, the Arrestin-3 recruitment (log [compound] M -4.5) is 43 % of JNJ-63533054 and 70 % of JNJ-63533054 and 77 % of JNJ-63533054. In addition, the Arrestin-3 recruitment (log [compound] M -5.0) was 41 % of JNJ-63533054 and 39 % of JNJ-63533054 and 33 % of JNJ-63533054. For the same compound, the Arrestin-3 recruitment (log [compound] M -5.5) was 37 % of JNJ-63533054 and 35 % of JNJ-63533054 and 17 % of JNJ-63533054. Where the note is “log [compound] M -6.0”, the Arrestin-3 recruitment is 20 % of JNJ-63533054 and 22 % of JNJ-63533054 and 12 % of JNJ-63533054. For the same compound, the Arrestin-3 recruitment (log [compound] M -6.5) was 14 % of JNJ-63533054 and 8 % of JNJ-63533054 and 1.75 % of JNJ-63533054. In addition, the Arrestin-3 recruitment (log [compound] M -7.0) is 4 % of JNJ-63533054 and 10 % of JNJ-63533054 and 2 % of JNJ-63533054. The Arrestin-3 recruitment (log [compound] M -7.5) was 0 % of JNJ-63533054 (2×) and 0.153 % of JNJ-63533054.
